The structures appear in SMILES notation. Values after ≈ are worked out from the molar mass of the structure shown.

Conditions in one series: not given
`CCC(C)CO` (configuration not stated) came in with a logP of 1.29.
As to `Cn1cnc([N+](=O)[O-])c1I`, the logP was determined as 1.
With `Clc1c(Cl)c(Cl)c2c(Cl)c(Cl)c(Cl)c(Cl)c2c1Cl`, the logP was determined as 8.5 and the solubility is 1.98e-07 mM (≈ 8e-08 mg/mL).
As for `C=CCSCC1Nc2cc(Cl)c(S(N)(=O)=O)cc2S(=O)(=O)N1` (configuration not stated), the logP was found to be 1.17.
Still for that read-out and setting: under `OC[C@@H]1C[C@H](F)[C@H](n2cnc3cncnc32)O1` stands -0.4; under `CC(=O)OCN1C(=O)C2CC=CCC2C1=O` (configuration not stated), 0.97.
On the same count and under the same terms, under `O=c1c(Cl)c(Cl)cnn1-c1ccccc1` stands 2.09.
The compound `OCc1c(F)cccc1F` yielded a logP of 1.12.
The same measure, in the same setting: under `ClC1=C(Cl)C2(Cl)C(CBr)CC1(Cl)C2(Cl)Cl` (configuration not stated) stands 5.9; under `CC(C)CN=C=S`, 2.82.
Turning to `Nc1ccc(Cc2ccc(N)c(Cl)c2)cc1Cl`, the solubility turned out to be 0.052 mM (≈ 0.0139 mg/mL).
`CCCCOCCNc1ccc(Cl)cc1C(N)=O` yielded a logP of 2.99.
Still for that read-out and setting: under `O=C(OC1C2C=CC1C=C2)c1ccccc1` (configuration not stated) stands 3.03; under `Cc1ccccc1NCc1cnc2nc(N)nc(N)c2c1C`, 1.98.
On the same count and under the same terms, the result for `O=C(OCn1ncc2c(=O)[nH]cnc21)c1ccccc1` reads 1.5; that for `COc1ccc2cc(CCC(C)=O)ccc2c1`, 3.08.
On to `O=C([O-])c1ccccc1.[Na+]`, for which the solubility was 3860 mM.
On to `CCCCc1oc(C)cc(=O)c1O`, for which the logP turned out to be 1.92.
Still for that read-out and setting: the result for `CC(C)c1cccc(OP(=O)(Oc2ccccc2)Oc2ccccc2)c1` reads 5.31.
The same measure, in the same setting: under `N#CC(C#N)=Cc1ccc(I)o1` stands 2.42.

Staying with this series, now noted: 20 °C.
The compound `CC(C)OC(=O)c1cc(-c2nn(C)c(C(F)(F)F)c2Br)c(F)cc1Cl` registered a solubility of 0.000119 mM (≈ 5.3e-05 mg/mL).
On the same count and under the same terms, the result for `O=C(O)Cc1ccccc1` reads 122 mM (≈ 16.6 mg/mL); that for `CCCC(C)C(=O)O` (configuration not stated), 129 mM (≈ 15 mg/mL).
On the same count and under the same terms, under `O=c1c(Cl)c(Cl)cnn1-c1ccccc1` stands 0.415 mM (≈ 0.1 mg/mL).

Staying with this series, now noted: 23.0 °C.
Turning to `CC(=O)C1CC=C(C)CC1` (configuration not stated), the log10 OH rate constant (cm³/molecule/s) was -9.89.

The same series, now with this note: 24 °C.
The compound `CCCN(CCC)N=O` registered a solubility of 99.9 mM (≈ 13 mg/mL).

Still in this series, the particulars now being: 25 °C.
As to `CN(C)c1ccc(N=Nc2ccccc2)cc1`, the solubility was found to be 0.00102 mM (≈ 0.00023 mg/mL).
The same measure, in the same setting: the result for `Cc1cccc(C)c1` reads 1.52 mM (≈ 0.161 mg/mL); that for `COc1c(Cl)ccc(Cl)c1C(=O)O`, 27.7 mM (≈ 6.12 mg/mL); that for `CN/C(=N\C#N)NCCSCc1nc[nH]c1C`, 41 mM (≈ 10.3 mg/mL).
For the compound `O=C1CCO1`, the solubility was 5130 mM (≈ 370 mg/mL).
Still for that read-out and setting: the result for `CSc1ccccc1` reads 4.07 mM (≈ 0.506 mg/mL).
The same measure, in the same setting: the result for `Cc1ccc2cc3c(ccc4ccccc43)c3c2c1CC3` reads 1.08e-05 mM (≈ 2.9e-06 mg/mL); that for `CN`, 34800 mM (≈ 1080 mg/mL); that for `CCCCC(CC)CO` (configuration not stated), 6.02 mM (≈ 0.785 mg/mL).
The same measure, in the same setting: the result for `NNC(=O)c1ccncc1` reads 1020 mM (≈ 140 mg/mL); that for `ClC1=C(Cl)C2(Cl)C3CCC4C(CCC3C1(Cl)C2(Cl)Cl)C1(Cl)C(Cl)=C(Cl)C4(Cl)C1(Cl)Cl` (configuration not stated), 6.73e-11 mM (≈ 4.4e-11 mg/mL).
Turning to `COC`, the solubility is 7660 mM (≈ 353 mg/mL).
The same measure, in the same setting: under `CCN(N=O)C(N)=O` stands 111 mM (≈ 13 mg/mL); under `CNC(=O)O/N=C/C(C)(C)S(C)=O` (configuration not stated), 136 mM (≈ 28 mg/mL).
The same measure, in the same setting: under `Clc1ccc2ccccc2c1` stands 0.0719 mM (≈ 0.0117 mg/mL); under `C[Se]C`, 224 mM (≈ 24.4 mg/mL).
Still for that read-out and setting: the result for `ClC1=C(Cl)C2(Cl)C3C4OC4C(Cl)C3C1(Cl)C2(Cl)Cl` (configuration not stated) reads 0.000514 mM (≈ 0.0002 mg/mL); that for `O=Nc1ccc2ccccc2c1O`, 2.89 mM (≈ 0.5 mg/mL); that for `c1ccc2c(c1)-c1cccc3cccc-2c13`, 0.00114 mM (≈ 0.000231 mg/mL).
`Clc1ccc(C(c2ccccc2Cl)C(Cl)Cl)cc1` (configuration not stated) gave a solubility of 0.000312 mM (≈ 0.0001 mg/mL).
Same read-out and setting: the result for `CCCCCCCCCCCCCCCCCO` reads 3.12e-05 mM (≈ 8e-06 mg/mL).
The compound `CCCCCCCCCCCCCCCC` registered a solubility of 3.97e-06 mM (≈ 9e-07 mg/mL).
On the same count and under the same terms, the result for `CON(C)C(=O)Nc1ccc(Cl)c(Cl)c1` reads 0.301 mM (≈ 0.075 mg/mL); that for `CC(=O)c1ccc(-c2ccccc2)cc1`, 0.489 mM (≈ 0.096 mg/mL).

Still in this series, the particulars now being: 25.0 °C.
In the case of `CC(=O)C=CC=O`, the log10 OH rate constant (cm³/molecule/s) was -10.3.
On to `FC(F)(F)C(Cl)Br` (configuration not stated), for which the log10 OH rate constant (cm³/molecule/s) was -13.3.
Same read-out and setting: under `C=C(C)C(CC=O)CCC(C)=O` (configuration not stated) stands -9.96.
The same measure, in the same setting: the result for `CC(C)CC(=O)CC(C)C` reads -10.6.
On the same count and under the same terms, the result for `Oc1ccc2ccccc2c1` reads -9.77; that for `CCNC(=O)OC`, -11.
Compound `FC(F)OC(F)(F)C(F)Cl` (configuration not stated) yielded a log10 OH rate constant (cm³/molecule/s) of -13.9.
On the same count and under the same terms, under `C/C(C=O)=C\C=C\C=O` stands -9.93.
Same read-out and setting: the result for `C=C(C)C(=O)OC` reads -10.6; that for `C[Se]C`, -10.2; that for `c1ccc2c(c1)-c1cccc3cccc-2c13`, -10.3.
On the same count and under the same terms, the result for `CC1CCCO1` (configuration not stated) reads -10.7.

Still in this series, the particulars now being: 28 °C.
`O=C(O)Cc1c(Cl)ccc(Cl)c1Cl` registered a solubility of 0.835 mM (≈ 0.2 mg/mL).

The series is the same for the next values; noted with them: 30 °C.
`CNC(=O)Oc1cccc(C(C)C)c1` yielded a solubility of 0.44 mM (≈ 0.085 mg/mL).
The same measure, in the same setting: the result for `Nc1ccc([N+](=O)[O-])cc1` reads 5.27 mM (≈ 0.728 mg/mL).

Still in this series, the particulars now being: pH 7.4.
The compound `N[C@@H](Cc1ccc(N(CCCl)CCCl)cc1)C(=O)O` came in with a logD of -0.52.

Usually logP stands for a log measure of how a compound divides between an organic and an aqueous phase. High values mean a more lipophilic compound, low ones a more hydrophilic compound. In general, solubility refers to the dissolved amount per volume that the medium holds. Higher therefore signals a readily soluble substance. The term logD denotes lipophilicity at a set pH, counting ionised and neutral species. Read a high logD as higher lipophilicity.

These data come from the OPERA property sets (Mansouri et al. 2018).
